PubChem BioAssay AID179 (DTP/NCI, 2004)
Several values for one entry are separate records, joined by “and”; a condition that tells them apart may be missing. Identical values can stand only once. Activity calls are given as the source filed them.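 Rule for the calls: active = compounds giving half or more protection of infected cells from virus-caused growth loss, again on retest; inactive = the rest.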

Tested on: CEM cells HIV-1 protection, formazan growth assay
Test: NCI AIDS Antiviral Assay
Settings: for IC50: measured here: growth of uninfected CEM cells
In short: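 Human CEM cells, uninfected and HIV-1-infected, received five drug concentrations, and growth was read by soluble formazan assay. Compounds giving at least 50% protection were retested; reproducible 100% protection defined confirmed active.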

Structure (SMILES)	EC50 [µM]	IC50	outcome
O=C1NCN(c2ccccc2)C12CCN(CCCSc1ccc(F)cc1)CC2	> 200	18.2 µM	
N#CCN1CCCN(CC#N)CCN(CC#N)CCCN(CC#N)CC1	> 200	141 µM	
Cc1ccc(-n2[nH]nc(C#N)c2=O)cc1	> 200	> 200 µM	
N#Cc1cnn2c1n[n+]([O-])c1ccc(Cl)cc12	> 100	7.76 µM	
Cn1ccc(C(=O)NCCN(CCNC(=O)c2ccn(C)c(=O)c2O)CCNC(=O)c2ccn(C)c(=O)c2O)c(O)c1=O	> 200	> 200 µM	
CCOC(=O)NC(NNc1ccc([N+](=O)[O-])cc1[N+](=O)[O-])(C(F)(F)F)C(F)(F)F	> 200	43.7 µM	
CCc1ccc(NCc2cc(OC)c(OC)c(OC)c2)cc1	> 166	0.372 µM and 0.151 µM	
C=C(c1ccc(OC)c(OC)c1)c1nccc2cc(OC)c(OC)cc12	> 74.1	12.6 µM	
CC(=O)OC1=C(c2ccccc2)c2ccccc2OC1	> 26.9	> 26.9 µM	
c1ccc(-c2ccc(-c3cc4ccccc4[nH]3)cc2)cc1	> 200	> 200 µM	
Cn1c(=S)sc2nc3ccccc3n2c1=S	> 200	10.7 µM	
Cc1ccc(SSc2ccc(C)c(Cl)c2)cc1Cl	> 200	> 200 µM	
CC1(C)OC(=O)C(C)(C)C(=O)O1			inactive
COC(=O)C1c2c(c3ccccc3n2C(=O)OC)CCN2CCC1C(S(=O)(=O)c1ccccc1)C2=O (stereo not given)	363	447 µM	
[N-]=[N+]=NC1=C(C(=O)c2ccccc2)C(=O)c2cccc3cccc1c23	> 100	49 µM	
CC(C)(C1=NC(C(C)(C)C)CO1)C1=N[C@@H](C(C)(C)C)CO1 (stereo not given in full)	> 251	> 251 µM	
C[C@@H]1C(=O)O[C@@H]2C[C@@]1(C)[C@@H]1C(=O)C3(O)OC14C2(C)OC(=O)[C@@]4(O)CCC1C3C(O)C=C2CC=CC(=O)[C@@]21C (stereo not given in full)	> 200	20 µM	
CC1(C)COC(c2ccc(C(=O)c3ccc(Cl)cc3)cc2)=N1	> 200	81.3 µM	
CC(C)C(=O)OCC1CCCN2CCCCC12 (stereo not given)	> 200	> 100 µM	
COC(=O)/C=C(/C)n1nc2ccccc2n1	> 200	> 200 µM	
O=C1C=C2CCN(C(=O)c3ccccc3)CC2O1 (stereo not given)	> 200	> 200 µM	
CCC[CH2][Sn]([CH2]CCC)([O]C(=O)C1CCC(=O)N1)[O]C(=O)C1CCC(=O)N1 (stereo not given)	> 38.9	0.0912 µM	
CCO[C@]12C[C@H](OC)[C@@]3(O)CC(C1[C@H]3O)C13C4C2[C@H](OC)C1[C@](COC)(CN4CC)[C@H](O)C[C@@H]3OC (stereo not given in full)	> 200	1.58 µM	

Structure (SMILES)	EC50 [µM]	IC50	outcome
CC1OC(OCC2OC(Oc3ccc(C4CC(=O)c5c(O)cc(O)cc5O4)cc3O)C(O)C(O)C2O)C(O)C(O)C1O (stereo not given)	> 200	> 200 µM	
CC(C)OC/N=C(/N)NC#N	> 575	> 575 µM	
CCCCC(=O)N1SC(NC(=O)OC)=Nc2ccccc21	> 309	6.76 µM	
OCC1OC2(CCCC3CC32)O[C@H]1CO (stereo not given in full)			inactive
Nc1ccc2oc(=O)c(C(=O)O)cc2c1	> 363	162 µM	
N#CC1C(=O)Nc2cccnc21 (stereo not given)	> 1580	832 µM	
O=C(O)[C@H](NS(=O)(=O)c1ccc([N+](=O)[O-])cc1)c1ccccc1			inactive
CC(C)(C)c1cc(/C=C\C(=O)c2ccc([N+](=O)[O-])cc2)cc(C(C)(C)C)c1O	> 10	> 10 µM	
S=c1cc(-c2ccccc2)ss1	> 200	38 µM and > 200 µM	
CCCCCCNC(=O)C1=C(C)NC(C)=C(C(=O)NCCCCCC)C1		89.1 µM	inactive
CN1CCN(CCSC2Cc3cc(Cl)ccc3Sc3ccccc32)CC1 (stereo not given)	> 64.6	7.76 µM	
Cc1cc(C)nc(NS(=O)(=O)c2ccc(N=c3c4ccccc4n(Cc4ccccc4)c4ccccc34)cc2)n1			inactive
C=C(CO[Si](C)(C)C(C)(C)C)C(C)=O			inactive
Nc1ccc2oc3cccc(N)c3c(=O)c2c1	> 22.9	> 22.9 µM	
Cc1[nH]c(=O)[nH]c(=O)c1Cc1ccc(Cl)cc1	> 200	> 200 µM	
Cc1nc2ccccc2c(-n2cccn2)c1CCn1cccn1	> 200	93.3 µM	
CCn1c2ccccc2n2c(=O)c3c(c(C#N)c12)CCCC3	> 200	> 200 µM	
O=S(=O)(O)C(O)CC(O)S(=O)(=O)O (stereo not given)	> 200	102 µM	
O=C(OCc1ccccc1)N1CCNCCN(C(=O)OCc2ccccc2)CCNCC1	> 200	87.1 µM	
COc1ccc(/C(C#N)=C/c2ccc(N(C)CCC#N)cc2)cc1	> 200	3.16 µM	
CN1Cc2ccccc2C2(COc3ccc(C=O)cc3C2=O)C1 (stereo not given)			inactive
CCOC(=O)C(C(=O)OCC)P(=S)(S)c1ccccc1 (stereo not given)	> 4370	> 4370 µM	
CCCC/C=C(/CCCNCCCC)[Si](C)(C)C	> 479	240 µM	

Structure (SMILES)	EC50 [µM]	IC50	outcome
CSc1nc2c(c(=O)n1C)N=C(c1ccccc1)[C@H](C(CC(=O)c1ccccc1)c1ccccc1)C(c1ccccc1)N2 (stereo not given in full)	> 200	47.9 µM	
Cc1ccc(S(=O)(=O)ON2C(=O)c3c(N)c(C#N)c(-c4ccccc4)c(-c4ccccc4)c3C2=O)cc1	> 200	3.8 µM	
O=C1C(=Cc2ccccc2O)N=C(c2ccccc2)N1n1c(-c2ccccc2)nc2ccccc2c1=O	> 200	10.2 µM	
N#CCCN(c1ccc(/C=C2\N=C(Cc3ccccc3)OC2=O)cc1)S(=O)(=O)c1ccccc1	240	275 µM	
CC1COC(c2cn[nH]c2C(N)=O)C1O (stereo not given)	> 200	> 200 µM	
CC1=C(C)C(N2CCOCC2)CS(=O)(=O)O1 (stereo not given)	> 200	> 200 µM	
C[C@@H]1C[C@@]2(O)[C@@H]3C[C@H](F)C4=CC(=O)CC[C@]4(C)[C@H]3[C@@H](O)C[C@]2(C)[C@@]1(O)C(=O)CO	> 200	178 µM	
CN(C)c1ccc(S(=O)Nc2ccccc2)cc1 (stereo not given)	> 200	85.1 µM	
NC1c2c(Br)sc(N3CCCC3)c2C(=O)C1O (stereo not given)	> 200	> 200 µM	
O=C(N/N=C\c1ccc[nH]1)c1ccncc1	> 200	> 200 µM	
C/C=C/C=Nc1c(C#N)c2n(c1C(=O)Nc1ccc(OC)cc1)CCC2	> 200	> 200 µM	
CC(C)C1(Cl)CCC2C3(C)CCCC(C)(C(=O)O)C3CC(Cl)C2(Cl)C1Cl (stereo not given)	> 200	41.7 µM	
CC1(C)N/C(=C\[N+](=O)[O-])C(C)(C)N1O	> 200	> 200 µM	
OC[P+](CO)(CO)C12CC3CC(CC(C3)C1)C2	> 200	41.7 µM	
CC1=CC(C)(C)N=C2SC(c3ccc(Cl)cc3)=NN12	> 24.5	20 µM	
CC1=CC(O)C(C(O)(C(F)(F)F)C(F)(F)F)C(C)(C)C1 (stereo not given)	> 200	178 µM	
CC1C2=C(C(=O)N1Cc1ccccc1)C(C1OC(COC(=O)c3ccccc3)C(OC(=O)c3ccccc3)C1OC(=O)c1ccccc1)C(=O)N(C)C2=O (stereo not given)	> 7.24	> 7.24 µM	
S=C1SCC2CCCN12 (stereo not given)			inactive
Cc1cc(C)[n+]([O-])c(C)c1	> 1820	977 µM	
CNc1nc(C(N)=O)c(N)s1	> 200	> 200 µM	
O=S(=O)(c1ccccc1)[C@H]1[C@@H]2O[C@@H]2C[C@@H]1O	> 1050	55 µM	
O=C1CNC(=O)c2[nH]cnc2N1			inactive
CC(=O)OCCOCN1C(=O)CC(=O)NC1=O	> 200	> 200 µM	

Structure (SMILES)	EC50 [µM]	IC50	outcome
O=c1nc2ccccc2c2n1CCN2	> 95.5	> 95.5 µM	
CC#CCCC1CCCCNC1=O (stereo not given)	> 138	> 138 µM	
Cc1c(CSCC(=O)O)c(O)c2c(=O)c3c(O)c(CSCC(=O)O)c(O)c4c5c(O)c(CSCC(=O)O)c(O)c6c(=O)c7c(O)c(CSCC(=O)O)c(C)c8c1c2c(c34)c(c78)c65	> 26.9	1.12 µM	
CN1C(C)(C)CC(=O)C(Br)C1(C)C (stereo not given)	> 200	117 µM	
COc1ccc(N/N=C/C2=CC(C)(C)C(C#N)(C#N)C(O)=C2C#N)cc1	> 200	28.2 µM	
O=C(Nc1nccs1)Nc1cc(C(F)(F)F)ccc1Cl	> 200	> 200 µM	
CNC(=O)c1[nH]cnc1/N=N/N(C)N	> 200	182 µM	
N#CC1=C(S)N(C2OC(CO)C(O)C(O)C2O)C(c2ccccc2)=CC1c1cccs1 (stereo not given)	> 200	27.5 µM	
CN1C(=O)CCC2(c3ccccc3)CC=C(O)C=C12 (stereo not given)	> 200	> 200 µM	
COc1ccc(N=Cc2cc(OC)c(OC)c(OC)c2)cc1	> 33.1	> 33.1 µM	
COC1(c2ccccc2)Oc2ccccc2C(=O)C1(O)C[N+](=O)[O-] (stereo not given)	> 200	15.5 µM	
Nc1ccc(S(=O)(=O)c2ccc(NCNC(CSSCC(NCNc3ccc(S(=O)(=O)c4ccc(N)cc4)cc3)C(=O)O)C(=O)O)cc2)cc1 (stereo not given)	> 200	112 µM	
CCSc1nc2cccc([N+](=O)[O-])c2n1CC			inactive
CNc1ccc([N+](=O)[O-])cc1C(=O)N1CCC[C@H]1CO	> 200	> 200 µM	
CN(C)/N=N/c1nc2c(c(=O)n(C)c(=O)n2C)n1C	> 151	> 151 µM	
NC(N)=NNC(=O)CCn1[nH]c(=O)c(Cl)c(Cl)c1=O	> 813	> 813 µM	
CCCCN(CCCC)c1ccc(/C=C2/C=Cc3ccccc32)cc1	> 11.2	> 11.2 µM	
COc1ccccc1NC(=O)/C(C=NC(=S)C(N)=S)=C(\C)O			inactive
CCOP(=O)(OCC)C(N)C(C)C (stereo not given)	> 513	> 513 µM	
O=C1CC(=O)NC(=NNS(=O)(=O)c2ccccc2)N1	> 200	> 200 µM	
CCC(c1ccc(OC(C)=O)c(CC(Br)CBr)c1)C(CC)c1ccc(OC(C)=O)c(CC(Br)CBr)c1 (stereo not given)	> 100	16.2 µM	
